# Measured values: patent US20060135501A1, “Piperidinyl-thiazole carboxylic acid derivatives as angiogenesis inhibitors” (priority 2002, published 2006)
# pIC50: −log10 of the molar value.
# Experiments:
# [1] = test system: human umbilical vein endothelial cells (HUVEC); assay: HUVEC proliferation assay co-stimulated with rhVEGF; type: cell-based; conditions: Homo sapiens, HUVEC, Table 6
# Protocol: The HUVEC assay measures the potency of test substances to inhibit in vitro proliferation of human umbilical vein endothelial cells (HUVEC) when co-stimulated with recombinant human vascular endothelial growth factor (rhVEGF).
# HUVEC are grown under defined conditions (EGM-2 medium, 37° C., 5% CO2 and 95% humidity). They are seeded into 48-well plates using EBM medium with only 1% serum and incubated for 24 h. This is to ensure that cells are not stimulated before treatment with VEGF and test compound.
# Test compounds are diluted in medium to concentrations between 0.05 and 50 μM and dosed together with VEGF165 at 12 ng/ml. This VEGF concentration was determined in a VEGF-dose-response curve to be just sub-optimal for maximum cell proliferation. Cells are incubated for 48 h at above conditions and viable cell density is measured using a tetrazolium compound (MTS). Viable cells reduce MTS into a soluble formazan product, which has an absorbance maximum at 490 nm. The absorbance is directly proportional to cell density.
# EBM+1% serum (no VEGF) ? Minimum or Blank
# EBM+1% serum (12 ng/ml) ? Maximum
# [2] = biological target: T1, EGF binding to human A431 cells (Homo sapiens, UniProt P00533); assay: Epidermal Growth Factor (EGF) radioligand binding assay
# T1 construct: endogenous in cells; host or cells: A431
# Protocol: (§1) Compounds 1633-00382 and 1633-02177 were tested for selectivity by determining their effect on the following assays: • Basic Fibroblast Growth Factor (FGF)-Induced cell proliferation (Gospodarowicz D, Brown K D, Birdwell C R & Zetter B R (1978) J. Cell. Biol. 77: 774-788); • Epidermal Growth Factor (EGF) radioligand binding assay (Dittadi R, Gion M, Brazzale A., Bruscagnin G. (1990) Clin. Chem. 36: 849-854; Massague J (1983) J. Biol. Chem. 258:13614-13620); and • Platelet-Derived Growth Factor (PDGF) radioligand binding assay (Williams L T, Tremble P M, Lavin M F & Sunday M E (1984) J. Biol. Chem. 259 5287-5294
# [3] = test system: PDGF binding to mouse 3T3 cells; assay: Platelet-Derived Growth Factor (PDGF) radioligand binding assay
# Protocol: as §1
# rhVEGF165-biotin = biological target: T2, rhVEGF165-biotin (Homo sapiens, UniProt P15692); assay: VEGF-Binding ELISA (dose-response); conditions: Table 6
# T2 sequence (P15692 27-191 isoform P15692-4): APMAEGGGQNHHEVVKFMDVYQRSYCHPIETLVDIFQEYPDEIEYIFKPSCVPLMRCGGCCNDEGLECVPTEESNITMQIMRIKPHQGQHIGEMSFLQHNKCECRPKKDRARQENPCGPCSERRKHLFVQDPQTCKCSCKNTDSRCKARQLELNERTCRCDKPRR
# Protocol: The potency of test substances as a VEGF-neutralising moiety is measured in an ELISA format. This assay measures the solution-phase interaction between rhVEGF165-biotin and test sample. Unbound VEGF165-biotin is then immobilised on a solid-phase anti-hVEGF antibody (R&D systems MAB293). The biotin signal is detected with streptavidin-alkaline phosphatase, which gives a colorimetric signal when incubated with p-nitrophenyl phosphate. Plates are read in a spectrophotometer at 405 nm.
# Any test compound that binds to VEGF165-biotin and prevents it from binding to the antibody will lower the color signal and be recognized as a “hit”. Hits were defined as compounds that show>60% inhibition.
# VEGF165-biotin+assay buffer ? 0% inhibition
# Soluble VEGF receptor (sflt @ 4 nM) ? 70% inhibition
# The primary screening of all library compounds was done at a compound concentration of 50 μM, followed by measuring dose-response effects of “hits” between 0.05 and 500 μM for the calculation of IC50 values.
# The compounds were dissolved in DMSO and it was shown that the solvent has no effect on the assay at this concentration.
# basic FGF = assay: Basic Fibroblast Growth Factor (FGF)-induced cell proliferation; type: cell-based
# Protocol: as §1
# [4] = ***re-tested in full-concentration response assays
# T1 sequence (P00533 25-1210): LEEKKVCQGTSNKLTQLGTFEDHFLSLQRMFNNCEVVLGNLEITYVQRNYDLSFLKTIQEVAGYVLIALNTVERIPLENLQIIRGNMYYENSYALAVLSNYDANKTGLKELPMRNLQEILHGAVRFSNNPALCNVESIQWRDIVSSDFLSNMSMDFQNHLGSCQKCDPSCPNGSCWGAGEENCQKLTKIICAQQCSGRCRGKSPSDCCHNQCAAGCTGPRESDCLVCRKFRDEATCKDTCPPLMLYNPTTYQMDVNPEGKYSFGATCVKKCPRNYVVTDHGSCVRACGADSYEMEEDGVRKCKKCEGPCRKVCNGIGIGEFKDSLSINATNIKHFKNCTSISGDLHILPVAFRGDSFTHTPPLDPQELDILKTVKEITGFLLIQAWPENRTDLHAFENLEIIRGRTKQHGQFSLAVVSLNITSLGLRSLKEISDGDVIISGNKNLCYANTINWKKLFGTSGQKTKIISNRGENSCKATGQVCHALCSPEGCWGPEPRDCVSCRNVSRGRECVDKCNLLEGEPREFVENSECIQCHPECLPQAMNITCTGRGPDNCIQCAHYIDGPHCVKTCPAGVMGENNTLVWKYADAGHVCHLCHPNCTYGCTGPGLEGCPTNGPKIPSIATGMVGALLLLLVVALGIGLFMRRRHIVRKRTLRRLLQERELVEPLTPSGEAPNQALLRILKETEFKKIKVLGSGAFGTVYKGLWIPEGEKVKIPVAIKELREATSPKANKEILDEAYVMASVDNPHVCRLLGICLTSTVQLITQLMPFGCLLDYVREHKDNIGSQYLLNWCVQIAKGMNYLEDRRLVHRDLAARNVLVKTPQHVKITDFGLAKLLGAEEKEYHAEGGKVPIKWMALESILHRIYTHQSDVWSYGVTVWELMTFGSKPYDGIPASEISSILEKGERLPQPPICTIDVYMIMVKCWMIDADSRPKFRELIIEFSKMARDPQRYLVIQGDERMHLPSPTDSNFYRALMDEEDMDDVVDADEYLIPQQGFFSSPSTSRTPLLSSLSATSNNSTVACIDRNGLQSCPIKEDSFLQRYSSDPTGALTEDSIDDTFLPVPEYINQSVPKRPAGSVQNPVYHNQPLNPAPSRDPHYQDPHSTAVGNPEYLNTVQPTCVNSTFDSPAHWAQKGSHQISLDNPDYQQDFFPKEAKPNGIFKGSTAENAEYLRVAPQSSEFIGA
inhibition of EGF binding [2],pIC50 (rhVEGF165-biotin; [4]),pIC50 (rhVEGF165-biotin; **tested after re-synthesised),pIC50 (rhVEGF165-biotin; *re-test 3 months later),pIC50 (rhVEGF165-biotin; first test (unmarked value)),SMILES,"pIC50 [1, 4]",pIC50 ([1]; **tested after re-synthesised),pIC50 ([1]; *re-test 3 months later),pIC50 ([1]; first test (unmarked value)),inhibition of PDGF binding [3],"pIC50 (basic FGF; Fibroblast, significant anti-proliferative activity, estimated value, read-out: anti-proliferative activity against basic FGF, estimated value)",cytotoxicity (basic FGF; at 10 μM)
did not inhibit,6.00,5.40,5.46,6.18,NC(=O)c1ccc(Cl)c(NC(=O)c2csc(C3CCN(C(=O)CSc4ncccn4)CC3)n2)c1 [Compound 1633-00382],4.92,4.70,4.80,6.03,did not inhibit,–,–
did not inhibit,–,4.74,–,4.92,CN(C)c1cccc(C(=O)N2CCC(c3nc(C(=O)Nc4cc(CC(N)=O)ccc4Cl)cs3)CC2)c1 [Compound 1633-02177],–,6.32,–,6.15,did not inhibit,6.39,moderate but not significant cytotoxicity
